Test results: US20230270773A1, “METHODS OF TREATING CANCER WITH A STING AGONIST” (Immunesensor Therapeutics, Inc., priority 2019, published 2023)
“Also recorded” adds a separate entry of the source.

Key:
AG104A fibrosarcoma = assay: Abscopal effect, AG104A fibrosarcoma bilateral tumor model; assay type: in vivo, C3B6F1 mice; conditions: intratumoral into primary tumor, PD-L1 antibody 200 µg
Procedure: C3B6F1 mice (N=8) bearing AG104A tumors on both left and right flanks were treated intratumorally on the right flank (primary) with Compound A on Days 5, 8, 11, and 15 after tumor inoculation. Tumors on the left flank (distant) were not treated.
(§1) An abscopal effect is an immune-mediated phenomenon wherein direct treatment of a primary tumor can lead to a response in a distant tumor. The potential abscopal effect of Compound A was evaluated in B16 melanoma and AG104A fibrosarcoma tumor models evaluating mice bearing tumors on both right flank (primary tumor) and left flank (secondary tumor). In both models, Compound A was administered intratumorally into the primary tumor on days 5, 8, 11 and 15 after tumor inoculation. The secondary tumor was not treated.

LL2 (lung cancer) = assay: LL2 PD-L1 antibody-resistant tumor model; assay type: in vivo, C57BL/6 mice
Procedure: (§2) Compound A was evaluated alone and in combination with 200 µg of the PD-L1 antibody used in Example 6 in immune checkpoint blockade-resistant tumors. In these studies, mice were implanted with LL2 (lung cancer), 4T1 (breast cancer), AG104Ld (fibrosarcoma), and AG104A (fibrosarcoma) tumors. Following implantation, the animals were dosed intratumorally or subcutaneously with 0.5 mg/kg of Compound A alone or in combination with the PD-L1 antibody, as shown in the table below: […]

AG104Ld (fibrosarcoma) = assay: AG104LD PD-L1 antibody-resistant tumor model; assay type: in vivo, B6C3F1 mice; conditions: Compound A 0.5 mg/kg SC, days 4, 7, 11, 14, 18, 21; PD-L1 antibody 200 µg
Procedure: as §2

MC38 (colon) = assay: MC38 syngeneic tumor model; assay type: in vivo, mouse
AG104A (fibrosarcoma) = assay: AG104A PD-L1 antibody-resistant tumor model; assay type: in vivo, B6C3F1 mice; conditions: Compound A 0.5 mg/kg SC, days 4, 7, 10, 14, 17, 21; PD-L1 antibody 200 µg
Procedure: as §2

B16 melanoma = assay: Abscopal effect, B16 melanoma bilateral tumor model; assay type: in vivo, mice; conditions: intratumoral into primary tumor, 0.15 and 0.5 mg/kg
Procedure: as §1

[1] = Compound A levels in plasma after dosing of mice; assay type: in vivo, C57BL/6 mice
Procedure: (§3) The pharmacokinetic/pharmacodynamic properties of Compound A were evaluated in C57BL/6 mice following dosing by subcutaneous, intramuscular, or intravenous routes of administration. Blood was collected post-dosing for the measurement of Compound A and cytokine levels in plasma.

[2] = tested on: IFNα, IL-6, TNFα and other cytokines; assay: Plasma cytokine levels in cynomolgus monkeys; assay type: in vivo; conditions: for plasma IFNα levels: male and female
[3] = tested on: B16 melanoma lung metastasis; assay: B16 melanoma lung metastasis model; assay type: in vivo, mouse; conditions: intratumoral days 5, 8, 11; PD-L1 antibody 200 µg
Procedure: A B16 melanoma lung metastasis model was used to evaluate the effect of Compound A on tumor metastasis. Compound A was administered intratumorally on days 5, 8, and 11 after tumor inoculation alone or in combination with a PD-L1 antibody (200 µg of the antibody used in Example 6).

AG104 (fibrosarcoma) = assay: AG104 syngeneic tumor model, intratumoral; assay type: in vivo, mouse
Procedure: Note that several of these tumors such as B16F10, 4T1, LL2 and AG104 are known to be refractory to antibodies against PD-1, PD-L1, or CTLA-4. In the B16F10 tumor model, twice weekly injection of Compound A for two weeks was efficacious in a dose-dependent manner in the range from 0.1 µg to 10 µg (0.005-0.5 mg/kg).

IFNβ and other cytokines = assay: Cytokine production induced in mice; assay type: in vivo, C57BL/6 mice
Procedure: as §3

[4] = Pharmacokinetics after intratumoral administration in B16F10 tumor bearing mice; assay type: in vivo; conditions: female B16F10 tumor bearing mice
Procedure: (§4) The nonclinical pharmacokinetics (PK) of subcutaneously, intravenously, or intratumorally administered Compound A was investigated in mice at the doses of 0.1 and/or 0.5 mg/kg.

4T1 (breast cancer) = assay: 4T1 PD-L1 antibody-resistant tumor model; assay type: in vivo, BALB/c mice
Procedure: as §2

syngeneic tumors = assay: Combination with PD-L1 antibody in multiple syngeneic tumor models; assay type: in vivo, mouse; conditions: tumors otherwise refractory to immune checkpoint inhibitors
Description: Several of these studies are described in the examples below.

[5] = Pharmacokinetics in mice, subcutaneous vs intravenous; conditions: mouse, in vivo
Procedure: as §4

[6] = Metabolic stability in in vitro systems; assay type: in vitro ADME, and monkey; conditions: human, rat, mouse, dog, monkey
[7] = 1 mg/kg/day, 1.5, 3 and 6 hours postdose

For `Nc1nc2c(ncn2[C@@H]2O[C@@H]3COP(=O)(O)OC4C(O)[C@H](n5cnc6c(N)ncnc65)O[C@@H]4COP(=O)(O)OC2C3OCC(F)(F)F)c(=O)[nH]1` (stereo partly shown) [Compound A], the “tumor growth/volume, primary and distant tumors” value (AG104A fibrosarcoma; 0.15 and 0.5 mg/kg, days 5, 8, 11, 15) was “tumor growth was suppressed in both primary and distant tumors; also recorded: significantly decreased”, the survival (AG104A fibrosarcoma) was “survival was significantly prolonged; also recorded: increases the survival” and the “efficacy (tumor growth and survival)” value (LL2 (lung cancer); Compound A 0.5 mg/kg IT, days 5, 10, 14, 17, PD-L1 antibody 200 µg) was “suppressed tumor growth and prolonged mouth survival”. The tumor growth inhibition (LL2 (lung cancer); intratumoral) was “highly effective in inhibiting tumor growth”, the “efficacy (tumor growth and survival)” value (AG104Ld (fibrosarcoma)) was “suppressed tumor growth and prolonged mouth survival” and the tumor growth inhibition (MC38 (colon); intratumoral) was “highly effective in inhibiting tumor growth”. The anti-tumor efficacy (MC38 (colon); subcutaneous) was “also effective”, the “efficacy (tumor growth and survival)” value (AG104A (fibrosarcoma)) was “suppressed tumor growth and prolonged mouth survival” and the survival (B16 melanoma) was “survival was significantly prolonged”. For the same compound, the “tumor growth/volume, primary and distant tumors” value (B16 melanoma; days 5, 8, 11, 15) was “tumor growth was suppressed in both primary and distant tumors; also recorded: significantly decreased”, the concentration at 15 minutes ([1]; C57BL/6, mouse, plasma, 15 minutes after injection, subcutaneous, intramuscular or intravenous, read-out: Compound A level in plasma) was 5 to 15 µM and the “Compound A in circulation” value ([1]; at 15 minutes, subcutaneous or intratumoral) was “detectable”. For the same compound, the “Levels of Compound A” value ([1]; by 1 hour, subcutaneous, intratumoral or intravenous) was “below the limit of quantitation (BLOQ)”, the “Compound A level in plasma” value ([1]; one hour after administration) was “below the limit of detection” and the “Cmax, comparison between administration routes” value ([1]; subcutaneous, intramuscular, intravenous) was “not significantly different between administration routes”. The “plasma IL-6 levels” value ([2]; 0.1 mg/kg/day, 3 and 6 hours postdose) was “Increased plasma levels of IL-6”, the IP-10 ([2]; 0.1 mg/kg/day, 3 hours post dosing) was “Slight elevation of IP-10” and the TNFα levels ([2]; 0.1 mg/kg/day, 6 hours postdose in male, 3 and 6 hours in female) was “Elevated levels of TNFα”. The TNFα levels ([2]; 0.1 mg/kg/day, 24 hours post dosing) was “returned to non-detectable level”, the IL-6 levels ([2]; 0.1 mg/kg/day, 24 hours postdose) was “returned to a non-detectable level” and the “plasma IFNα levels” value ([2]; 0.1 mg/kg/day) was “did not cause significant increase”. The “plasma IL-6 levels” value ([2]; 0.6 mg/kg/day, 3 and 6 hours postdose) was “Increased plasma levels of IL-6”, the TNFα levels ([2]; 0.6 mg/kg/day, 6 hours postdose in male, 1.5, 3, 6 hours in female) was “Elevated levels of TNFα” and the “plasma IFNα levels” value ([2]; 0.6 mg/kg/day) was “did not cause significant increase”. For the same compound, the IP-10 ([2]; 0.6 mg/kg/day, throughout the time course) was “No significant elevation of IP-10”, the IP-10 level [2, 7] was “no increased IP-10 level” and the TNFα levels [2, 7] was “Elevated TNFα levels”. The IFNα levels ([2]; 1 mg/kg/day, 1.5 and 3 hours postdose) was “did not cause significant change”, the IL-6 levels ([2]; 1 mg/kg/day, 3 and 6 hours postdose) was “Marked increase in IL-6 levels” and the IFNα levels ([2]; 1 mg/kg/day, 6 hours postdose) was “elevated levels”. For the same compound, the IFNα levels ([2]; 3 mg/kg and 10 mg/kg, 12 hours after dosing) was “decreased 12 hours after dosing, but did not return to pre-dose levels”, the IFNα levels ([2]; 10 mg/kg group) was “Higher levels of IFNα” and the “IL-12, G-CSF, and IFNγ levels” value ([2]; Phase II) was “sporadic increases”. The “changes in MCP-1 and IP-10 levels” value ([2]; Phase II) was “suggestive of an inflammatory response with resolution by 24 hours postdose”, the “plasma IL-1ra, IL-6, and IFNα cytokine levels” value ([2]; Phase II, 3 mg/kg, 3 and 6 hours) was “dose-dependent increases” and the “number of metastases in the lung” value [3] was “dramatically reduced”. The primary tumor volume [3] was “significant reduction in tumor volume”, the tumor growth inhibition (AG104 (fibrosarcoma)) was “highly effective in inhibiting tumor growth” and the cytokine induction (IFNβ and other cytokines; 0.50 mg/kg) was “very low levels of cytokines”. The IFNβ in blood (IFNβ and other cytokines; 3 hours post dosing) was “High levels of IFNβ”, the “IFNβ levels in blood” value (IFNβ and other cytokines; 12 hours post dosing) was “near the BLOQ” and the cytokine induction (IFNβ and other cytokines; dose levels that showed significant antitumor efficacy) was “only induced low levels of cytokine”. For the same compound, the “time at which cytokine production was seen” value (IFNβ and other cytokines; following administration) was 3 to 6 h, the “time to decrease of cytokines to BLOQ” value (IFNβ and other cytokines; following administration) was no more than 12 h and the “induction of IFNβ and other cytokines” value (IFNβ and other cytokines; subcutaneous 0, 0.15, 0.50, 1.50, 5, 15, 50 mg/kg, 3 and 6 hours post injection) was “dose-dependent induction of IFNβ”. The Frel in plasma ([4]; intratumoral 0.1 mg/kg) was 105%, the Frel in plasma ([4]; intratumoral 0.5 mg/kg) was 112% and the “efficacy (tumor growth and survival)” value (4T1 (breast cancer); Compound A 0.5 mg/kg IT, days 5, 8, 11, 15, PD-L1 antibody 200 µg) was “suppressed tumor growth and prolonged mouth survival”. The tumor growth inhibition (4T1 (breast cancer); intratumoral) was “highly effective in inhibiting tumor growth”, the “responsiveness to PD-L1 antibody” value (syngeneic tumors) was “restored responsiveness to PD-L1 antibody” and the bioavailability ([5]; sc, subcutaneous 0.5 mg/kg, male mice, subcutaneous AUC0-t vs intravenous AUC0-t, read-out: bioavailability (F)) was 121%. It also gave a clearance ([5]; mice, systemic compartment, read-out: clearance (CL) (converted)) of 16.8 mL/min/kg, a half-life ([5]; mice, read-out: t½) of roughly 15 min and a Vd ([5]; mice, read-out: volume of distribution (Vss)) of 0.255 L/kg. It also gave a half-life [6] greater than 120 min.
